Assay results from PMC3758303 (PLoS ONE, 2013).

Columns and labels:
[1] = system: HCV-JFH-1 strain (genotype 2a) in Li23-derived D7 cells; assay: JFH-1 reporter assay system, D7 cells; type: cell-based, hepatitis C virus; conditions: D7 cells inoculated with JR/C5B/BX-2 supernatant, RL assay
Experimental: HCV infection was performed as described previously. RSc and D7 cells were inoculated with supernatant from RSc cells replicating JR/C5B/BX-2 [29].
Figure 2 Characterization of anti-HCV activities of N-89 and N-251. (A) Schematic gene organization of authentic HCV-RNA (HCV-O/RLGE). The positions of four adaptive mutations - Q1112R, P1115L, E1202G, and K1609E - are indicated by a black star. (B) N-89 and N-251 inhibited authentic HCV-RNA replication. The cells harboring HCV-O/RLGE RNA [19] were treated with N-89 (left panel) and N-251 (right panel) for 72 hrs, followed by real-time LightCycler PCR (black circles in the upper panel) and WST-1 assay (open triangles in the upper panel). The relative value (%) calculated at each point, when the level in non-treated cells was assigned as 100%, is presented here. Data are expressed as the means±standard deviation of triplicate assays. Western blot analysis (lower panels) was performed as described in Fig. 1B. […]
We next examined whether N-89 and N-251 worked in an HCV production system using HCV-JFH-1 strain (genotype 2a). […] To clarify whether anti-HCV activity depends on the difference of genotype or assay model, we evaluated the activities of N-89 and N-251 using RSc-JRN/35B [Ikeda et al., submitted] cells harboring a subgenomic HCV-JFH-1 replicon as an additional assay.

[2] = system: genome-length HCV-RNA (O strain of genotype 1b) replication in HuH-7-derived OR6 cells; assay: OR6 RL assay; type: cell-based, hepatitis C virus; conditions: for EC50: Hepatitis C virus, OR6 assay, HuH-7, HCV strain O, 72 hrs, RL assay
Experimental: (§1) RSc and D7 cells were derived from the cell lines HuH-7 and Li23, respectively, were cultured as described previously, [29]. HuH-7-derived OR6 [13], AH1R [30], and 1B-4R [Ikeda et al., submitted] cells harboring genome-length HCV-RNA and HuH-7-derived polyclonal sOR [31], and RSc-JRN/35B [Ikeda et al., submitted] cells harboring an HCV subgenomic replicon were cultured with medium in the presence of G418 (0.3 mg/ml; Geneticin, Invitrogen, Carlsbad, CA) as described previously. Li23-derived ORL8 [20], ORL11 [20], 1B-4RL [Ikeda et al., submitted], and KAH5RL [Ikeda et al., submitted] cells harboring genome-length HCV-RNA were maintained with medium in the presence of G418 (0.3 mg/ml) as described previously. Li23-derived polyclonal sORL8 and sORL11 cells harboring an HCV replicon, which were established by the transfection of ORN/3-5B/QR,KE,SR RNA into the cured OL8 and OL11 cells, respectively, were also cultured with medium in the presence of G418 (0.3 mg/ml) as described previously. Cured cells, from which the HCV-RNA had been eliminated by IFN treatment, were also maintained with medium in the absence of G418 as described previously. […] Therefore, when HCV-RNA is excluded from the cells or when its level is decreased, the cells are killed in the presence of G418.
(§2) RL assay was performed as described previously, [24]. Briefly, the cells were plated onto 24-well plates (2×10^4 cells per well) in triplicate and then treated with each reagent at several concentrations for 72 hrs. After treatment, the cells were subjected to luciferase assay using the RL assay system (Promega, Madison, WI). The experiments were performed at least in triplicate. From the assay results, the 50% effective concentration (EC50) of each reagent was determined.
(§3) The SI value of each reagent was determined by dividing the CC50 value by the EC50 value.

[3] = system: HCV-RNA replication in ORL8 cells; assay: Combination with IFN-α and/or RBV, ORL8 RL assay; type: cell-based, hepatitis C virus; conditions: 72 hrs; for anti-HCV effect in combination with IFN-α: IFN-α more than 4 IU/ml
Source text: We examined the anti-HCV activity of N-89 or N-251 in combination with IFN-α using OR6 and ORL8 assay systems. […] However, such an effect was not clear in the OR6 assay (Fig. S4A). […] Therefore, we next examined the combination effect of RBV in the same way as IFN-α using an ORL8 assay. […] Therefore, we further examined the effect of N89 or N-251 in combination with both IFN-α and RBV using an ORL8 assay.
Figure 6 Synergistic anti-HCV effects of N-89 or N-251 in combination with IFN-α and/or RBV on HCV-RNA replication in ORL8 cells. […] ORL8 cells were treated with N-89 (upper panel) or N-251 (lower panel) in combination with IFN-α (A), RBV (B), or IFN-α and RBV (C) for 72 hrs and subjected to RL assay.

[4] = system: HCV subgenomic replicon RNA (O strain) replication in HuH-7-derived polyclonal sOR cells; assay: sOR RL assay; type: cell-based, hepatitis C virus; conditions: HuH-7, subgenomic replicon
Experimental: as §1, §2, §3

[5] = system: genome-length HCV-RNA (O strain of genotype 1b) replication in Li23-derived ORL11 cells; assay: ORL11 RL assay; type: cell-based; conditions: Hepatitis C virus, 72 hrs
Experimental: as §1, with “G418. […]” for “G418.”
as §3

[6] = target: T1, renilla luciferase (RL) activity (Renilla reniformis, UniProt P27652); assay: Direct effect on RL activity in cell lysate; type: biochemical
T1 construct: expressed in transfected cells; host or cells: OR6 (HuH-7-derived) and ORL8 (Li23-derived) cells harbouring genome-length HCV-RNA that encodes RL; cell lysate
Source text: The genome-length HCV-RNA used in the assay systems described above contains three non-natural elements: RL, neomycin phosphotransferase, and an internal ribosomal entry site of encephalomyocarditis virus. To exclude the possibility that the anti-HCV activity of N-89 or N-251 was due to the inhibition of these three exogenous elements, we examined the anti-HCV activities of N-89 and N-251 using the authentic 9.6 kb HCV-RNA-replicating HCV-O/RLGE cells, which were developed by the introduction of in vitro synthesized HCV-O/RLGE RNA (Fig. 2A) into OR6c cured cells.
Supplementary file pone.0072519.s002.tif: Figure S2 No inhibition of RL activity by N-89 or N-251. […] N-89 or N-251 was added to the OR6 cell lysate, and then an RL assay was performed. […] N-89 or N-251 was added to the ORL8 cell lysate, and then an RL assay was performed. (TIF) Click here for additional data file.

[7] = reagent added along with substrate to OR6 cell lysate
[8] = reagent added along with substrate to ORL8 cell lysate

T1 sequence (P27652 whole entry): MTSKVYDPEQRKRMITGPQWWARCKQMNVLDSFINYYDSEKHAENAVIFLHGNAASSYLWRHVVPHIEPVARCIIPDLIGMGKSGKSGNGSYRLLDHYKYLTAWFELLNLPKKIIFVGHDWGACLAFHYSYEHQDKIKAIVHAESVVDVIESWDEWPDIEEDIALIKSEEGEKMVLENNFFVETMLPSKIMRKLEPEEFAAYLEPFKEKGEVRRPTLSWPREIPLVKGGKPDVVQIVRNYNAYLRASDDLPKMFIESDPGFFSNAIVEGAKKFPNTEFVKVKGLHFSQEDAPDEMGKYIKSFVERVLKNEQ

| SMILES | anti-HCV activity for the HCV-JFH-1 strain [1] | anti-HCV activity (suppression) ([2]; 8 µM in OR6 cells, without a decrease in cell viability) | EC50 [2] | anti-HCV effect in combination with RBV [3] | anti-HCV effect in combination with both IFN-α and RBV [3] | anti-HCV effect in combination with IFN-α [3] | EC50 ([4]; Hepatitis C virus, Huh-7, 72 h) | EC50 ([4]; 72 hrs) | EC50 [5] | direct effect on RL activity [6, 7] | direct effect on RL activity [6, 8] |
| --- | --- | --- | --- | --- | --- | --- | --- | --- | --- | --- | --- |
| C1CCCCCC2(CCCCC1)OOCCCOO2 [N-89, 1,2,6,7-Tetraoxaspiro[7.11]nonadecane] | did not show anti-HCV activity | > 99% | 660 nM | synergistic effect | synergistically enhanced | synergistic effect | < 1000 nM | 580 nM | 45 nM | No suppressive effects | No suppressive effects |
| OCCCCCCC1COOC2(CCCCCCCCCCC2)OOC1 [N-251, 6-(1,2,6,7-tetraoxaspiro[7.11]nonadec-4-yl)hexan-1-ol] | did not show anti-HCV activity |  | 690 nM | synergistic effect | synergistically enhanced | synergistic effect | < 1000 nM | 690 nM | 59 nM | No suppressive effects | No suppressive effects |
